Values quoted from earlier work as cited in patent publication US20050163759A1, “Compositions and methods for ex vivo preservation of blood vessels for vascular grafts using inhibitors of type I and/or type II phosphodiesterases” (priority 2003, published 2005).

System: endothelial cells
Conditions: stated as known; no experiment described

CCCC(=O)Nc1ncnc2c1ncn2[C@@H]1O[C@@H]2COP(=O)(O)O[C@H]2[C@H]1OC(=O)CCC [db cAMP, dibutyryl adenosine 3′,5′-cyclic monophosphate]
db cAMP concentrations that become toxic to endothelial cells: higher than 4 mM
